Results published in patent US12384740B2, “Cationic lipids and transfection methods” (Factor Bioscience Inc., priority 2019, dated 2025).

What was measured:
Type in all cases: cell-based
[1] = test system: human peripheral blood mononuclear cells (hPBMCs); experiment: Transfection of hPBMCs with GFP RNA (FIG. 4); conditions: 400 ng GFP RNA; 100% FBS; images 16 hours following transfection; both lipid-to-RNA mass ratios tested
Description: (§1) FIG. 1 depicts primary human epidermal keratinocytes cultured in a 24-well plate, and transfected with 400 ng per well of in vitro transcribed RNA encoding green fluorescent protein (GFP) complexed with the indicated lipid and with the indicated mass ratio of lipid to RNA. Complexation was performed in DMEM, and transfections were performed in 100% fetal bovine serum (FBS). Images were taken eight hours following transfection.
FIG. 4 depicts the results of an experiment conducted as in FIG. 1, but with human peripheral blood mononuclear cells (hPBMCs) instead of keratinocytes. Images were taken 16 hours following transfection. “LF3000” indicates cells transfected with LIPOFECTAMINE 3000 (cationic liposome formulation) commercial transfection reagent. “Neg.” indicates un-transfected cells.
(§2) Stock solutions of lipid in ethanol were prepared at concentrations of between 5 mg/mL and 20 mg/mL and stored at −20° C. To perform transfections, nucleic acid was first diluted in DMEM (1 μg of nucleic acid in 50 μL of DMEM), then the desired amount of lipid stock solution was added. After adding the lipid, the solution was mixed thoroughly, and complexes were allowed to form for between about 5 minutes and about 25 minutes before adding to cells. For the experiments depicted in FIG. 1 through FIG. 6, the lipid was used without the acetone purification described in Example 5.

[2] = test system: confluent layer of primary human epidermal keratinocytes; experiment: Transfection of a confluent layer of primary human epidermal keratinocytes with GFP RNA (FIG. 5A/5B); conditions: 400 ng GFP RNA; 100% FBS; images 24 hours following transfection; both lipid-to-RNA mass ratios tested
Description: as §1
FIG. 5A depicts the results of an experiment conducted as in FIG. 4, but with a confluent layer of primary human epidermal keratinocytes instead of hPBMCs. Images were taken 24 hours following transfection.
FIG. 5B depicts the experiment of FIG. 5A, shown at higher magnification.
as §2

[3] = test system: primary human epidermal keratinocytes; experiment: Transfection of primary human epidermal keratinocytes with GFP RNA in 100% FBS (FIG. 1, 2, 7)
Description: as §1
FIG. 2 depicts the experiment of FIG. 1, with fluorescence measured at the indicated time points following transfection using DHDLinS.
FIG. 3 depicts the results of an experiment conducted as in FIG. 1, but with the indicated amounts of RNA (in nanograms) and the indicated lipid-to-RNA mass ratios (in micrograms of lipid per microgram of RNA). Images were taken 16 hours following transfection. As shown in the figure, all RNA amounts and lipid-to-RNA mass ratios tested yielded a fluorescent signal.
FIG. 7 depicts the results of an experiment conducted as in FIG. 3, but with DHDLinS purified by extraction with acetone as described in Example 5.
as §2

[4] = test system: primary human adult dermal fibroblasts; experiment: Transfection of primary human adult dermal fibroblasts with GFP RNA (FIG. 6A/6B); conditions: 400 ng GFP RNA; 100% FBS; images 16 hours following transfection; both lipid-to-RNA mass ratios tested
Description: as §1
FIG. 6A depicts the results of an experiment conducted as in FIG. 4, but with primary human adult dermal fibroblasts instead of hPBMCs. Images were taken 16 hours following transfection.
FIG. 6B depicts the experiment of FIG. 6A, shown at higher magnification.
as §2

[5] = test system: neonatal human epidermal keratinocytes (HEKn); experiment: Transfection of HEKn with GFP-encoding RNA complexed with lipid, mean fluorescence intensity per cell (Table 1); conditions: 20,000 HEKn per well, 24-well plate; 100 ng in vitro transcribed GFP RNA; 24 hours after transfection
Description: as §2, with “5. Table 1 depicts the results of an experiment in which 20,000 neonatal human epidermal keratinocytes (HEKn) per well of a 24-well plate were transfected with 100 ng of in vitro transcribed RNA encoding green fluorescent protein (GFP) complexed with the indicated lipids. Fluorescence was measured 24 hours after transfection. Numbers indicate mean fluorescence intensity per cell (a.u.).” for “5.”

[6] = time course of FIG. 1 experiment, 400 ng GFP RNA, 100% FBS

| Compound | Fluorescence Intensity (mean fluorescence intensity per cell) [5] [a.u.] | other results |
| --- | --- | --- |
| CCCCC/C=C\C/C=C\CCCCCCCCN(CCCCN(CCCCCCCC/C=C\C/C=C\CCCCC)CC(O)CN)CC(O)CN (centres unmarked) [DHDLinS, N^1,N^4-dilinoleyl-N^1,N^4-di-(2-hydroxy-3-aminopropyl)-diaminobutane] | 8009 | Transfection of hPBMCs (GFP fluorescence images) [1]: effectively transfected; Transfection of confluent keratinocytes (GFP fluorescence images) [2]: effectively transfected; Transfection efficiency (GFP fluorescence images) ([3]; 400 ng GFP RNA per well, transfection in 100% FBS, images eight hours following transfection, lipid without acetone purification): transfected with high efficiency; Change of fluorescence signal with lipid-to-RNA mass ratio ([3]; DHDLinS purified by extraction with acetone, lipid-to-RNA mass ratios greater than 2 μg/μg, images 16 hours following transfection): minimal increase in fluorescence signal; Signal intensity and number of fluorescent cells over time [3, 6]: increased for several hours following transfection; Time of first detection of fluorescent signal following transfection [3, 6]: detected one hour following transfection; Transfection of dermal fibroblasts (GFP fluorescence images) [4]: effectively transfected |
| CCCCC/C=C\C/C=C\CCCCCCCCN(CCCCCN(CCCCCCCC/C=C\C/C=C\CCCCC)CC(O)CN)CC(O)CN (centres unmarked) [Formula I (n = 5), N^1,N^5-dilinoleyl-N^1,N^5-di-(2-hydroxy-3-aminopropyl)-diaminopentane] | 7554 | – |
| CCCCC/C=C\C/C=C\CCCCCCCCN(CCCCCCN(CCCCCCCC/C=C\C/C=C\CCCCC)CC(O)CN)CC(O)CN (centres unmarked) [Formula I (n = 6), N^1,N^6-dilinoleyl-N^1,N^6-di-(2-hydroxy-3-aminopropyl)-diaminohexane] | 8596 | – |
| CCCCC/C=C\C/C=C\CCCCCCCCN(CCCCCCCCN(CCCCCCCC/C=C\C/C=C\CCCCC)CC(O)CN)CC(O)CN (centres unmarked) [Formula I (n = 8), N^1,N^8-dilinoleyl-N^1,N^8-di-(2-hydroxy-3-aminopropyl)-diaminooctane] | 9170 | – |
| CCCCC/C=C\C/C=C\CCCCCCCCN(CCCCCCCCCCN(CCCCCCCC/C=C\C/C=C\CCCCC)CC(O)CN)CC(O)CN (centres unmarked) [Formula I (n = 10), N^1,N^10-dilinoleyl-N^1,N^10-di-(2-hydroxy-3-aminopropyl)-diaminodecane] | 7842 | – |
| CCCCC/C=C\C/C=C\CCCCCCCCN(CCCCCCCCCCCCN(CCCCCCCC/C=C\C/C=C\CCCCC)CC(O)CN)CC(O)CN (centres unmarked) [Formula I (n = 12), N^1,N^12-dilinoleyl-N,N^12-di-(2-hydroxy-3-aminopropyl)-diaminododecane] | 5631 | – |
| N^1,N^2-dilinoleyl-N^1,N^2-di-(2-hydroxy-3-aminopropyl)-diaminoethane [Formula I (n = 2)] | 6623 | – |
